Patent US20050000824A1, “Phosphorus-borates with low melting points” (priority 2001, published 2005)

Columns and labels:
Assay type in all cases: physicochemical
[1] = Determination of solubility (qualitative, mixing ionic liquid with solvent)
Experimental: Solubility was determined only qualitatively by mixing approximately 0.5 ml of the ionic liquid with the same amount of organic solvent and shaking. All samples were checked a second time after several hours to ensure, that no slow phase separation had occured.

[2] = Thermal decomposition observed with melting point determination; conditions: thermal stability
[3] = Determination of viscosity (Brookfield Cone and Plate Viscometer)
Experimental: Viscosity was measured using an LVDV-II Brookfield Cone and Plate Viscometer (1% accuracy, 0.2 repeatability). The sample cup of the viscometer was fitted with luer and purge fittings, so that a positive current of dry dinitrogen was maintained at all times during the measurements, thus avoiding absorption of atmospheric moisture. The sample cup was jacketed with a circulating water bath that was controlled by a circulator bath Grant LTD 6G (+0.1° C. accuracy).

SMILES | Solubility ([1]; solvent acetonitrile) | Solubility ([1]; solvent hexane) | Solubility ([1]; solvent iso-propyl alcohol) | Viscosity ([3]; 15 ° C.) [cP] | Viscosity ([3]; 20 ° C.) [cP] | Viscosity ([3]; 25 ° C.) [cP] | Viscosity ([3]; 30 ° C.) [cP] | Viscosity ([3]; 35 ° C.) [cP] | Viscosity ([3]; 40 ° C.) [cP] | Viscosity ([3]; 45 ° C.) [cP] | Viscosity ([3]; 50 ° C.) [cP] | Viscosity ([3]; 55 ° C.) [cP] | Viscosity ([3]; 60 ° C.) [cP] | Viscosity ([3]; 65 ° C.) [cP] | Viscosity ([3]; 70 ° C.) [cP] | Viscosity ([3]; 75 ° C.) [cP] | Viscosity ([3]; 80 ° C.) [cP] | Viscosity ([3]; 85 ° C.) [cP] | Viscosity ([3]; 90 ° C.) [cP] | Viscosity ([3]; 95 ° C.) [cP] | also measured
CCCCCCCCCCCCCC[P+](CCCCCC)(CCCCCC)CCCCCC.c1ccc2c(c1)O[B-]1(O2)Oc2ccccc2O1 [[R4P] [BBB], [(C6)3P(C14)][BBB]] | Y* | N** | Y* | 6184 | 3735 | 2439 | 1593 | 1087 | 739.8 | 538.1 | 386.7 | 288.3 | 217.2 | 168.2 | 126.3 | 100.2 | 81.0 | 65.2 | 50.2 | 40.91 | decomposition (temperature) [2]: above 200 °C
CCCCCCCCCCCCCC[P+](CCCCCC)(CCCCCC)CCCCCC.c1ccc2c(c1)O[B-]1(Oc3ccccc3-2)Oc2ccccc2-c2ccccc2O1 [[R4P] [BBPB], [(C6)3P(C14)][BBPB]] | Y* | – | Y* | 33737 | 20660 | 12813 | 8245 | 5453 | 3675 | 2703 | 1953 | 1393 | 1022 | 759.0 | 550.7 | 333.9 | 209.2 | 173.0 | 177.8 | – | Viscosity ([3]; 5 ° C.): 95020 cP; Viscosity ([3]; 10 ° C.): 59233 cP
CCCCCCCCCCCCCC[P+](CCCCCC)(CCCCCC)CCCCCC.O=C1O[B-]2(OC(=O)c3ccccc3O2)Oc2ccccc21 [[R4P] [BSB], [(C6)3P(C14)][BSB]] | Y* | N** | – | 2663 | 1730 | 1164 | 801.4 | 566.3 | 407.0 | 300.4 | 229.6 | 171.4 | 132.6 | 106.3 | 85.1 | 68.4 | 56.4 | 47.2 | 39.9 | 34.1 | Viscosity ([3]; 5 ° C.): 7334 cP; Viscosity ([3]; 10 ° C.): 4241 cP
